The text below walks through data of the Kinase Knowledgebase extract (Sharma et al. 2016).

The target in one assay is CDK2 (UniProt P24941). The assay can be described thus: Enzyme Assay.
Assay [1] addresses CDK2 (human) (UniProt P24941). The assay can be described thus: Cell-Based Assay.
A further assay deals with EGFR (UniProt P00533).
The target in assay [2] is CDK2 (human) (UniProt P24941). The following applies: A431.

The structures appear in SMILES notation.

EGFR, sequence (P00533 whole entry, looked up): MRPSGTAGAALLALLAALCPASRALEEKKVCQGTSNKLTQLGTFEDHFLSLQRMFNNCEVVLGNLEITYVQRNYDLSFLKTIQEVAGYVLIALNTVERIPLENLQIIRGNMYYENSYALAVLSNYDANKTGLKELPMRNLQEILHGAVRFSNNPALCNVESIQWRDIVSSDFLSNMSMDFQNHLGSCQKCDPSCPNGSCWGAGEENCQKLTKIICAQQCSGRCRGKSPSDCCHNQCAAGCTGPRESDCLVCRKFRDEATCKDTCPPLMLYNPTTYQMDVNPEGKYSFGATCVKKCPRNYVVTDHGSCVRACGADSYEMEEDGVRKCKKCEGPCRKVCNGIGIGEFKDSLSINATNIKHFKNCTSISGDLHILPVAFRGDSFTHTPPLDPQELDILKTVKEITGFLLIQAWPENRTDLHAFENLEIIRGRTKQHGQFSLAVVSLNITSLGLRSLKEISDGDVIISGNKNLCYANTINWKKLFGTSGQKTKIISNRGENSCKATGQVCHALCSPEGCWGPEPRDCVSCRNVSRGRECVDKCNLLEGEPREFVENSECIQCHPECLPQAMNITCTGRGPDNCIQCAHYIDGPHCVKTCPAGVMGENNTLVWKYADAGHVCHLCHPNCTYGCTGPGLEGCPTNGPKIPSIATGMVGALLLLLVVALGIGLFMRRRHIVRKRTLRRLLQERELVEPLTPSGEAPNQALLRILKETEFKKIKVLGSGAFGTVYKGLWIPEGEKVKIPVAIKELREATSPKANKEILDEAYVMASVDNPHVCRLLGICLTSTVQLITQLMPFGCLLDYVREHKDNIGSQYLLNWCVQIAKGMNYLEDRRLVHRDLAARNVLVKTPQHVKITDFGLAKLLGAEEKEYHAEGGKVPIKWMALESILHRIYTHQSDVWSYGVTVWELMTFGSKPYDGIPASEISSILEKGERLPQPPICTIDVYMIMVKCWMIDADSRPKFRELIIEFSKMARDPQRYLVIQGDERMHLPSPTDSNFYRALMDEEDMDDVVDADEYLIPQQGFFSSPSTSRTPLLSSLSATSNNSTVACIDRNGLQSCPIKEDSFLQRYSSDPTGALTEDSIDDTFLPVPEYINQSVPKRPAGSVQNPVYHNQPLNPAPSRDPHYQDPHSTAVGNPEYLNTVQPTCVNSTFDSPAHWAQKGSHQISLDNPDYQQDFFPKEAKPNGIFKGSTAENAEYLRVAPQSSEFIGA

For the compound `OCCNc1nc(Nc2cccc(F)c2)c2cn[nH]c2n1`, the IC50 was 0.5 µM at CDK2 and 66.1 µM at EGFR. Further, the figures for the GI50 in the assay with CDK2 (human) [1] (hct-116), in the assay with CDK2 (human) [1] (snu638) and with CDK2 (human) [2] were more than 100 µM, more than 100 µM and 28.9 µM, respectively.

Regarding `Cn1ncc2c(NCc3ccccc3)nc(NCCO)nc21`, the IC50 against CDK2 and on EGFR was more than 100 µM each time. Moreover, the GI50 with CDK2 (human) [1] (hct-116) was more than 100 µM; with CDK2 (human) [1] (snu638), 37.1 µM; with CDK2 (human) [2], 42.7 µM.

Turning to `OCCN(CCO)c1nc(Nc2cccc(Br)c2)c2cn[nH]c2n1`, the IC50 stood at 3.8 µM against CDK2 and 36.3 µM at EGFR. The GI50 with CDK2 (human) [1] (hct-116) was more than 100 µM; with CDK2 (human) [1] (snu638) it was 38.9 µM; with CDK2 (human) [2], more than 100 µM.

Turning to `OCCN(CCO)c1nc(NCc2ccccc2)c2cn[nH]c2n1`, the IC50 turned out to be 37.2 µM on CDK2 and 55 µM on EGFR. Besides, the GI50 with CDK2 (human) [1] (hct-116) is 93.6 µM; with CDK2 (human) [1] (snu638), 29 µM; with CDK2 (human) [2] it was more than 100 µM.

As for `Cn1ncc2c(Nc3cccc(F)c3)nc(NCCO)nc21`, the figures for the IC50 against CDK2 and at EGFR were 21.4 µM and more than 100 µM, respectively. In addition, the values for the GI50 in the assay with CDK2 (human) [1] (hct-116), in the assay with CDK2 (human) [1] (snu638) and with CDK2 (human) [2] were 28.2 µM, 15.8 µM and 16.3 µM, respectively.

As for `CC(C)n1ncc2c(Nc3cccc(Br)c3)nc(NCCO)nc21`, the IC50 against CDK2 is 28.2 µM; at EGFR, more than 100 µM. Besides, the 50% growth inhibitory concentration (GI50) with CDK2 (human) [1] (hct-116) is 6.46 µM; with CDK2 (human) [1] (snu638), 4.28 µM; in the assay with CDK2 (human) [2] it was 2.19 µM.

As for `CC(C)n1ncc2c(Nc3cccc(F)c3)nc(N(CCO)CCO)nc21`, the IC50 on CDK2 was 47.9 µM; against EGFR, more than 100 µM. Further, the values for the GI50 with CDK2 (human) [1] (hct-116), with CDK2 (human) [1] (snu638) and with CDK2 (human) [2] were 10.9 µM, 7.95 µM and 6.25 µM, respectively.

`CC(C)n1ncc2c(NCc3ccc(N)cc3)nc(NCCO)nc21`: the 50% inhibitory concentration (IC50) on CDK2 and on EGFR was more than 100 µM throughout. The results for the 50% growth inhibitory concentration (GI50) with CDK2 (human) [1] (hct-116), in the assay with CDK2 (human) [1] (snu638) and in the assay with CDK2 (human) [2] were more than 100 µM, 38.2 µM and 55.3 µM, respectively.

Consider `OCCNc1nc(Nc2cccc(Br)c2)c2cn[nH]c2n1`, for which the IC50 is 8.1 µM at CDK2 and more than 100 µM at EGFR. Moreover, the GI50 with CDK2 (human) [1] (hct-116) was more than 100 µM; with CDK2 (human) [1] (snu638) it was 69.2 µM; with CDK2 (human) [2], more than 100 µM.

As to `COc1cccc(Nc2nc(N(CCO)CCO)nc3c2cnn3C)c1`, the IC50 against CDK2 is 57.5 µM; against EGFR, more than 100 µM. Besides, the results for the GI50 in the assay with CDK2 (human) [1] (hct-116), with CDK2 (human) [1] (snu638) and in the assay with CDK2 (human) [2] were 17.2 µM, 10.5 µM and 12.9 µM, respectively.

As to `Cn1ncc2c(Nc3cccc(Br)c3)nc(N(CCO)CCO)nc21`, the IC50 at CDK2 and against EGFR was more than 100 µM in each case. Also, the 50% growth inhibitory concentration (GI50) with CDK2 (human) [1] (hct-116) turned out to be 16.6 µM; with CDK2 (human) [1] (snu638) it was 6.2 µM; with CDK2 (human) [2], 2.94 µM.

`CC(C)n1ncc2c(NCc3ccccc3)nc(NCCO)nc21`: the concentration for half-maximal inhibition (IC50) at CDK2 and against EGFR was more than 100 µM in each case. Moreover, the GI50 with CDK2 (human) [1] (hct-116) stood at 57.6 µM; with CDK2 (human) [1] (snu638), 25.2 µM; in the assay with CDK2 (human) [2] it was 35.6 µM.

For the compound `COc1cccc(Nc2nc(NCCO)nc3c2cnn3C)c1`, the IC50 at CDK2 and at EGFR was more than 100 µM each time. Further, the GI50 with CDK2 (human) [1] (hct-116) was found to be 90.4 µM; in the assay with CDK2 (human) [1] (snu638) it was 21.7 µM; with CDK2 (human) [2], 19.1 µM.

Take `CC(C)n1ncc2c(Nc3cccc(Br)c3)nc(N(CCO)CCO)nc21`: the IC50 on CDK2 is 29.5 µM; against EGFR it was more than 100 µM. Besides, the GI50 with CDK2 (human) [1] (hct-116) came out at 5.06 µM; in the assay with CDK2 (human) [1] (snu638), 4.1 µM; with CDK2 (human) [2], 2.58 µM.

Take `CC(C)n1ncc2c(Nc3cccc(F)c3)nc(NCCO)nc21`: the IC50 at CDK2 was 49 µM; on EGFR, more than 100 µM. The GI50 with CDK2 (human) [1] (hct-116) was determined as 19.3 µM; in the assay with CDK2 (human) [1] (snu638), 7.57 µM; in the assay with CDK2 (human) [2] it was 7.8 µM.

As to `COc1cccc(Nc2nc(N(CCO)CCO)nc3c2cnn3C(C)C)c1`, the results for the IC50 on CDK2 and on EGFR were 66 µM and more than 100 µM, respectively. Also, the results for the GI50 with CDK2 (human) [1] (hct-116), with CDK2 (human) [1] (snu638) and with CDK2 (human) [2] were 12.6 µM, 7.92 µM and 4.43 µM, respectively.

For the compound `OCCNc1nc(NCc2ccccc2)c2cn[nH]c2n1`, the IC50 is 29.5 µM against CDK2 and 93.3 µM on EGFR. Further, the results for the 50% growth inhibitory concentration (GI50) in the assay with CDK2 (human) [1] (hct-116), in the assay with CDK2 (human) [1] (snu638) and with CDK2 (human) [2] were 4.5 µM, 20.8 µM and 26.6 µM, respectively.

As to `COc1cccc(Nc2nc(N(CCO)CCO)nc3[nH]ncc23)c1`, the values for the IC50 on CDK2 and on EGFR were 10.2 µM and more than 100 µM, respectively. In addition, the GI50 in the assay with CDK2 (human) [1] (hct-116), in the assay with CDK2 (human) [1] (snu638) and in the assay with CDK2 (human) [2] was more than 100 µM throughout.

In the case of `CC(C)n1ncc2c(NCc3ccccc3)nc(N(CCO)CCO)nc21`, the concentration for half-maximal inhibition (IC50) against CDK2 and against EGFR was more than 100 µM each time. Also, the figures for the GI50 in the assay with CDK2 (human) [1] (hct-116), with CDK2 (human) [1] (snu638) and in the assay with CDK2 (human) [2] were 47.7 µM, 26.1 µM and 21.9 µM, respectively.

For `Cn1ncc2c(NCc3ccc([N+](=O)[O-])cc3)nc(NCCO)nc21`, the figures for the half-maximal inhibitory concentration (IC50) against CDK2 and against EGFR were 17.8 µM and more than 100 µM, respectively. Also, the GI50 amounted to 48.5 µM with CDK2 (human) [1] (hct-116), 24.9 µM in the assay with CDK2 (human) [1] (snu638) and 23.4 µM with CDK2 (human) [2].

For the compound `COc1cccc(Nc2nc(NCCO)nc3c2cnn3C(C)C)c1`, the IC50 against CDK2 and at EGFR was more than 100 µM each time. In addition, the GI50 was 21.4 µM in the assay with CDK2 (human) [1] (hct-116), 7.55 µM with CDK2 (human) [1] (snu638) and 13.1 µM in the assay with CDK2 (human) [2].

For `Cn1ncc2c(NCc3ccc(N)cc3)nc(NCCO)nc21`, the IC50 against CDK2 and against EGFR was more than 100 µM throughout. In addition, the values for the GI50 in the assay with CDK2 (human) [1] (hct-116), with CDK2 (human) [1] (snu638) and with CDK2 (human) [2] were more than 100 µM, 96.8 µM and 58.9 µM, respectively.

Take `CC(C)n1ncc2c(NCc3ccc([N+](=O)[O-])cc3)nc(NCCO)nc21`: the IC50 on CDK2 was 46.8 µM; on EGFR, more than 100 µM. Further, the GI50 with CDK2 (human) [1] (hct-116) worked out at 77.7 µM; in the assay with CDK2 (human) [1] (snu638), 23.4 µM; in the assay with CDK2 (human) [2], 32 µM.

As to `COc1cccc2c1C(=O)c1c(O)c3c(c(O)c1C2=O)C[C@@](O)(C(=O)CO)CC3O[C@H]1C[C@H](N)[C@H](O)[C@H](C)O1` (some centres not stated), the GI50 with CDK2 (human) [1] (hct-116) worked out at 0.13 µM; with CDK2 (human) [2], 0.18 µM.

With `Cn1ncc2c(Nc3cccc(Br)c3)nc(NCCO)nc21`, the IC50 against CDK2 is more than 100 µM; on EGFR, 47.9 µM. The GI50 was more than 100 µM with CDK2 (human) [1] (hct-116), 18.2 µM with CDK2 (human) [1] (snu638) and 31.9 µM with CDK2 (human) [2].

`COc1cccc(Nc2nc(NCCO)nc3[nH]ncc23)c1`: the IC50 at CDK2 was 3.1 µM; on EGFR, more than 100 µM. Moreover, the GI50 in the assay with CDK2 (human) [1] (hct-116) is 38.2 µM; with CDK2 (human) [1] (snu638) it was 17.1 µM; in the assay with CDK2 (human) [2], more than 100 µM.

As to `OCCN(CCO)c1nc(Nc2cccc(F)c2)c2cn[nH]c2n1`, the IC50 is 0.9 µM on CDK2 and more than 100 µM against EGFR. Besides, the GI50 with CDK2 (human) [1] (hct-116) is more than 100 µM; with CDK2 (human) [1] (snu638), more than 100 µM; with CDK2 (human) [2], 54.3 µM.

As for `Cn1ncc2c(NCc3ccccc3)nc(N(CCO)CCO)nc21`, the IC50 at CDK2 was more than 100 µM; at EGFR, 77.6 µM. Besides, the 50% growth inhibitory concentration (GI50) in the assay with CDK2 (human) [1] (hct-116) is 53.4 µM; in the assay with CDK2 (human) [1] (snu638), 25.3 µM; in the assay with CDK2 (human) [2] it was 24.3 µM.

Consider `Cn1ncc2c(Nc3cccc(F)c3)nc(N(CCO)CCO)nc21`, for which the figures for the half-inhibitory concentration (IC50) against CDK2 and on EGFR were 36.3 µM and 29.5 µM, respectively. The GI50 with CDK2 (human) [1] (hct-116) is 8.89 µM; with CDK2 (human) [1] (snu638) it was 2.56 µM; in the assay with CDK2 (human) [2], 3.94 µM.
